Reference: patent US8759073B2, “Method for effectively controlling harmful organisms in large-scale culture of microalgae” (ENN Science & Technology Development Co., Ltd., priority 2009, dated 2014)
“Also recorded” adds a separate entry of the source.

Key:
ciliate = assay: Control of ciliate contamination (mixed contamination) in microalgae culture, microscope examination; assay type: cell-based
Description: In an embodiment, the pH of the culture system is first raised by alkalis, followed by aeration of CO2 to saturation. When the harmful organisms are observed as being in control under a microscope (for example, these harmful organisms such as Oxyrrhis, Amoeba and ciliate cannot be observed under a microscope or the activity of the harmful organisms has been reduced), the pH value is then adjusted back to the optimal pH suitable for microalgae growth by sufficiently aerating air. In an embodiment, an interval of 1 hour exists between the step of raising pH of the culture system with an alkali and the step of aerating CO2 to saturation. In an embodiment, said alkali can be ammonia. In an embodiment, said alkali can be 1M NaOH. […] In an embodiment, the pH of the culture system is adjusted to 11.5-12.0, 11.0-11.8 or 8.0-11.0 with 1M NaOH or 1M ammonia. In an embodiment, the pH of the culture system is adjusted to 11.5-12.0, 11.0-11.8 or 8.0-11.0 and maintained for 1 hours, followed by aeration of CO2 to saturation for about 24 hours. In an embodiment, the pH of the culture system is adjusted to 11.5-12.0, 11.0-11.8 or 8.0-11.0 and maintained for 1 hours, followed by aeration of CO2 to saturation for about 23 hours.
(§1) Chlorella sp. […] Modified SM medium (see Table 2) was used. […] Then air was sufficiently aerated.
(§2) Chlorococcum sp. […] Modified BG11 medium (see Table 3) was used. […] Then air was sufficiently aerated. Eighteen hours later, Chlorococcum sp. could resume to grow.
(§3) Modified SM (see Table 2) was used. […] Then air was sufficiently aerated. Twenty-four hours later, the algae could resume to grow.
(§4) Then air was sufficiently aerated. Eighteen hours later, Chlorococcum sp. could resume to grow.
(§5) Modified SM (see Table 2) was used. […] One hour later, CO2 was aerated to saturation for 23 hour continuously (about pH 5.8). […] Then air was sufficiently aerated. Twenty-four hours later, the algae could resume to grow.

Amoeba = assay: Control of Amoeba contamination in microalgae culture, microscope examination; assay type: cell-based, Amoeba sp.
Description: If the contaminated alga liquid is identified as alkali tolerant contamination, CO2 is aerated into the culture system of microalgae, so as to lower the pH value. At this time, the appearance of the algae cells and the harmful organisms are observed under a microscope. When the harmful organisms has been inhibited or inactivated, air is sufficiently aerated into the culture system and the pH value is adjusted back to the optimal pH suitable for microalgae growth. In an embodiment, the concentration of CO2 reaches saturation. In an alternative embodiment, the pH value can be adjusted back to the optimal pH suitable for microalgae growth with ammonia (one of the nitrogen sources used by microalgae). In an embodiment, the pH value can be adjusted back to the optimal pH suitable for microalgae growth with NaOH. In an embodiment, the used NaOH is 1M NaOH. In an embodiment, the pH is 5.6-5.7 in the alga culture system with a saturated concentration of CO2. In an alternative embodiment, if the algae are marine algae (such as in the case of Dunaliella tertiolecta), the aerated CO2 can maintain pH within the range of 6.0-6.5. After that, if the harmful organisms have been determined to be in control (for instance, most of Amoeba have become spherical), salinity is reduced by diluting with water (salinity is the ratio between the mass of the solute in seawater and the mass of seawater), followed by sufficient aeration with air, so as to adjust the pH and salinity to a condition suitable for alga growth. In an embodiment (for example, in the case that the alga is Nannochloris sp. or Dunaliella tertiolecta), CO2 can be aerated intermittently. In an embodiment, CO2 can be aerated at an interval of two hours. In an embodiment, the culture system is maintained at pH 6.0-6.5 for 2 days, followed by decreasing 1% of the salinity by adding water. In an embodiment, the culture system is maintained with saturated CO2 for about 28 hours. In an embodiment, CO2 is kept at saturation for about 27 hours in the culture system. In an embodiment, saturated CO2 is aerated continuously into the culture system for 36 hours. In an embodiment, CO2 is aerated periodically at an interval of 2 hours (pH is in the range of 5.0-8.5), for 2 days.
Microscope examination is always used as one of the bases for determining the growth status in the process of microalgae culture. As a result, all the early-stage contamination is found by microscope examination. For example, when the alga liquid without microscope examination is contaminated, it's color generally changes into e.g. brown or brown spots are observed on the wall of the reactor, etc. However the contamination has become severer once the color change is observed directly.
Salinity was reduced by 1% (e.g. from 9% to 8%) by way of dilution with water. Then air was sufficiently aerated.
as §1
Chlorococcum sp. […] Modified BG11 medium (see Table 3) was used. […] CO2 was aerated continuously.
as §2
Nannochloris sp. […] Modified BG11 medium (see Table 4) was used. […] Then CO2 was aerated periodically at an interval of 2 hours (pH ranged within 5.0-8.5).
as §3, §4, §5

[1] = Example 4, after 1M NaOH pH 11.0-11.8 1 h, CO2 to saturation (pH 5.6) 24 hours
[2] = Example 7, after 1M NaOH pH 11.5-12.0 1 h, CO2 to saturation (about pH 5.6) 24 hour
[3] = Example 12, after 1M ammonia pH 9.0 1 h, CO2 to saturation (pH 5.6) 24 hours
[4] = Example 14, after 1M ammonia pH 9.0 1 h, CO2 to saturation (about pH 5.6) 24 hour

O=C=O [CO2, carbon dioxide]
ciliates, result of microscope examination (ciliate; [1]): a few inactive and immotile ciliates
ciliates, result of microscope examination (ciliate; [2]): a few inactive and immotile ciliates
ciliates, result of microscope examination (ciliate; Example 10, after 1M NaOH pH 11.5-12.0 1 h, CO2 to saturation (about pH 5.8) 23 hour): a few inactive and immotile ciliates
ciliates, result of microscope examination (ciliate; [3]): a few inactive and immotile ciliates
ciliates, result of microscope examination (ciliate; [4]): a few inactive and immotile ciliates
ciliates, result of microscope examination (ciliate; Example 15, after 1M ammonia pH 10.0 1 h, CO2 to saturation (about pH 5.8) 23 hour): a few inactive and immotile ciliates
Amoeba, result of microscope examination (Amoeba; Example 1, Dunaliella tertiolecta culture, CO2 aerated intermittently, pH 6.0-6.5, two days): most Amoebae were found to become spherical
Amoeba, result of microscope examination (Amoeba; Example 1, after CO2 pH 6.0-6.5 two days, salinity reduced by 1%, air aerated, twenty-four hours later): almost no Amoeba
Amoeba, result of microscope examination (Amoeba; Example 3, Chlorella sp. culture, CO2 aerated continuously, saturated, pH 5.6-5.7, one hour): most Amoebae were found to become spherical and lose activity
Amoeba, result of microscope examination (Amoeba; Example 3, saturated CO2, twenty-seven hours after the first hour (about 28 hours)): almost no intact Amoeba was observed; also recorded: almost no Amoeba was found
Amoeba, result of microscope examination (Amoeba; [1]): no Amoeba
Amoeba, result of microscope examination (Amoeba; Example 5, Chlorococcum sp. culture, CO2 saturated, pH about 5.6-5.7, one hour): most Amoeba turned into spherical, were inactivated and could not change shape or move
Amoeba, result of microscope examination (Amoeba; Example 5, saturated CO2, twenty-seven hours later): almost no intact Amoeba were observed
Amoeba, result of microscope examination (Amoeba; [2]): no Amoeba
Amoeba, result of microscope examination (Amoeba; Example 9, Nannochloris sp. culture, CO2 aerated periodically at an interval of 2 hours (pH 5.0-8.5), two days): no Amoeba was observed; also recorded: essentially in control
Amoeba, result of microscope examination (Amoeba; Example 10, Spirulina maxima culture, after 1M NaOH pH 11.5-12.0 1 h, CO2 to saturation (about pH 5.8) 23 hour): no Amoeba
Amoeba, result of microscope examination (Amoeba; [3]): no Amoeba
Amoeba, result of microscope examination (Amoeba; [4]): no Amoeba
Amoeba, result of microscope examination (Amoeba; Example 15, Spirulina maxima culture, after 1M ammonia pH 10.0 1 h, CO2 to saturation (about pH 5.8) 23 hour): no Amoeba
